Laboratory results taken from patent publication US8192962B2, “Processes for detecting toxic substances” (Daikin Industries, Ltd., priority 2001, dated 2012).

Test system: Transport facilitation protein genes
Assay: DNA chip mRNA expression in yeast, transport facilitation protein genes (Table 5)
Format: cell-based, Saccharomyces cerevisiae S288C
In short: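 In this screen, yeast in logarithmic growth are challenged for two hours with a toxic substance at a non-lethal inhibitory concentration. Their mRNA, converted to Cy3- or Cy5-labeled cDNA, hybridizes at 65° C. to a chip spanning every yeast gene, and expression is expressed as a ratio to untreated cells.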

[Cl][Cd][Cl] [(2), CdCl2]
The level of expressed mRNA in the presence of chemical substance/The level of expressed mRNA in the absence of chemical substance (yeast gene YBL030C): 0.9 | The level of expressed mRNA in the presence of chemical substance/The level of expressed mRNA in the absence of chemical substance (yeast gene YBL099W): 0.9 | The level of expressed mRNA in the presence of chemical substance/The level of expressed mRNA in the absence of chemical substance (yeast gene YBR052C): 1.6 | The level of expressed mRNA in the presence of chemical substance/The level of expressed mRNA in the absence of chemical substance (yeast gene YBR068C): 1.0 | The level of expressed mRNA in the presence of chemical substance/The level of expressed mRNA in the absence of chemical substance (yeast gene YBR127C): 0.7 | The level of expressed mRNA in the presence of chemical substance/The level of expressed mRNA in the absence of chemical substance (yeast gene YBR132C): 1.9 | The level of expressed mRNA in the presence of chemical substance/The level of expressed mRNA in the absence of chemical substance (yeast gene YBR207W): 1.7 | The level of expressed mRNA in the presence of chemical substance/The level of expressed mRNA in the absence of chemical substance (yeast gene YBR293W): 3.1 | The level of expressed mRNA in the presence of chemical substance/The level of expressed mRNA in the absence of chemical substance (yeast gene YBR294W): 14.4 | The level of expressed mRNA in the presence of chemical substance/The level of expressed mRNA in the absence of chemical substance (yeast gene YBR295W): 1.5 | The level of expressed mRNA in the presence of chemical substance/The level of expressed mRNA in the absence of chemical substance (yeast gene YBR298C): 1.0 | The level of expressed mRNA in the presence of chemical substance/The level of expressed mRNA in the absence of chemical substance (yeast gene YCL025C): 4.6 | The level of expressed mRNA in the presence of chemical substance/The level of expressed mRNA in the absence of chemical substance (yeast gene YCL038C): 1.6 | The level of expressed mRNA in the presence of chemical substance/The level of expressed mRNA in the absence of chemical substance (yeast gene YCR024C-A): 0.9 | The level of expressed mRNA in the presence of chemical substance/The level of expressed mRNA in the absence of chemical substance (yeast gene YCR037C): 1.0 | The level of expressed mRNA in the presence of chemical substance/The level of expressed mRNA in the absence of chemical substance (yeast gene YCR098C): 3.0 | The level of expressed mRNA in the presence of chemical substance/The level of expressed mRNA in the absence of chemical substance (yeast gene YDL128W): 1.1 | The level of expressed mRNA in the presence of chemical substance/The level of expressed mRNA in the absence of chemical substance (yeast gene YDL198C): 1.0 | The level of expressed mRNA in the presence of chemical substance/The level of expressed mRNA in the absence of chemical substance (yeast gene YDL210W): 2.2 | The level of expressed mRNA in the presence of chemical substance/The level of expressed mRNA in the absence of chemical substance (yeast gene YDL245C): 2.4 | The level of expressed mRNA in the presence of chemical substance/The level of expressed mRNA in the absence of chemical substance (yeast gene YDR038C): 1.3 | The level of expressed mRNA in the presence of chemical substance/The level of expressed mRNA in the absence of chemical substance (yeast gene YDR039C): 1.6 | The level of expressed mRNA in the presence of chemical substance/The level of expressed mRNA in the absence of chemical substance (yeast gene YDR086C): 1.0 | The level of expressed mRNA in the presence of chemical substance/The level of expressed mRNA in the absence of chemical substance (yeast gene YDR270W): 1.5 | The level of expressed mRNA in the presence of chemical substance/The level of expressed mRNA in the absence of chemical substance (yeast gene YDR298C): 1.2 | The level of expressed mRNA in the presence of chemical substance/The level of expressed mRNA in the absence of chemical substance (yeast gene YDR342C): 1.1 | The level of expressed mRNA in the presence of chemical substance/The level of expressed mRNA in the absence of chemical substance (yeast gene YDR343C): 1.0 | The level of expressed mRNA in the presence of chemical substance/The level of expressed mRNA in the absence of chemical substance (yeast gene YDR345C): 0.9 | The level of expressed mRNA in the presence of chemical substance/The level of expressed mRNA in the absence of chemical substance (yeast gene YDR387C): 0.9 | The level of expressed mRNA in the presence of chemical substance/The level of expressed mRNA in the absence of chemical substance (yeast gene YDR497C): 0.5 | The level of expressed mRNA in the presence of chemical substance/The level of expressed mRNA in the absence of chemical substance (yeast gene YEL027W): 0.6 | The level of expressed mRNA in the presence of chemical substance/The level of expressed mRNA in the absence of chemical substance (yeast gene YEL063C): 0.8 | The level of expressed mRNA in the presence of chemical substance/The level of expressed mRNA in the absence of chemical substance (yeast gene YEL065W): 3.8 | The level of expressed mRNA in the presence of chemical substance/The level of expressed mRNA in the absence of chemical substance (yeast gene YER053C): 1.8 | The level of expressed mRNA in the presence of chemical substance/The level of expressed mRNA in the absence of chemical substance (yeast gene YFL011W): 0.7 | The level of expressed mRNA in the presence of chemical substance/The level of expressed mRNA in the absence of chemical substance (yeast gene YFL041W): 1.6 | The level of expressed mRNA in the presence of chemical substance/The level of expressed mRNA in the absence of chemical substance (yeast gene YFL050C): 1.0 | The level of expressed mRNA in the presence of chemical substance/The level of expressed mRNA in the absence of chemical substance (yeast gene YFL054C): 1.1 | The level of expressed mRNA in the presence of chemical substance/The level of expressed mRNA in the absence of chemical substance (yeast gene YGL006W): 1.3 | The level of expressed mRNA in the presence of chemical substance/The level of expressed mRNA in the absence of chemical substance (yeast gene YGL008C): 0.7 | The level of expressed mRNA in the presence of chemical substance/The level of expressed mRNA in the absence of chemical substance (yeast gene YGL104C): 2.0 | The level of expressed mRNA in the presence of chemical substance/The level of expressed mRNA in the absence of chemical substance (yeast gene YGL167C): 0.7 | The level of expressed mRNA in the presence of chemical substance/The level of expressed mRNA in the absence of chemical substance (yeast gene YGL255W): 0.9 | The level of expressed mRNA in the presence of chemical substance/The level of expressed mRNA in the absence of chemical substance (yeast gene YGR055W): 5.7 | The level of expressed mRNA in the presence of chemical substance/The level of expressed mRNA in the absence of chemical substance (yeast gene YGR065C): 1.5 | The level of expressed mRNA in the presence of chemical substance/The level of expressed mRNA in the absence of chemical substance (yeast gene YGR082W): 0.9 | The level of expressed mRNA in the presence of chemical substance/The level of expressed mRNA in the absence of chemical substance (yeast gene YGR096W): 1.0 | The level of expressed mRNA in the presence of chemical substance/The level of expressed mRNA in the absence of chemical substance (yeast gene YGR138C): 1.6 | The level of expressed mRNA in the presence of chemical substance/The level of expressed mRNA in the absence of chemical substance (yeast gene YGR191W): 0.7 | The level of expressed mRNA in the presence of chemical substance/The level of expressed mRNA in the absence of chemical substance (yeast gene YGR197C): 2.4
